# Test system: LTB4 formation in human neutrophils
# Test: Influence on LTB4 formation in human neutrophils
# Format: cell-based
# Conditions: Neutrophil, 0.1 μM, n = 6, read-out: LTB4 formation, Residual activity (%)
# Procedure: (§1) Moreover, the substances according to the invention were also characterized in cellular leukocyte systems in vitro as inhibitors of arachidonic acid metabolites. To detect the lipoxygenase metabolites, human neutrophils stimlated by calcium ionophore A 23 187 (70 mcmol/1) were incubated with ^14 C-arachidonic acid (81 mcmol/1) and the principal metabolites formed after 15 minutes at 37° C., such as 5-hydroxyeicosatetraenoic acid (5-HETE) and the more strongly proinflammatory leukotriene B4 (LTB4) were determined quantitatively (Tab. 6) with the aid of a radio monitor after separation by HPLC. The influence on the proinflammatory arachiconic acid metabolites thromboxane and LTB4 in cultures prepared from rat mast cells was determined in a corresponding manner (Tab. 7).
row,SMILES,activity at 0.1 µM
1,CC(C)(C)c1cc(-c2csc(CC(=O)O)n2)cc(C(C)(C)C)c1O [Example 9],70 ± 12%

# Same assay, conditions: Neutrophil, 1 μM, n = 6, read-out: LTB4 formation, Residual activity (%)
row,SMILES,activity at 1 µM
1,CC(C)(C)c1cc(-c2csc(CC(=O)O)n2)cc(C(C)(C)C)c1O [Example 9],79 ± 11%

# Same assay, conditions: Neutrophil, 10 μM, n = 6, read-out: LTB4 formation, Residual activity (%)
row,SMILES,activity at 10 µM
1,CC(C)(C)c1cc(-c2csc(CC(=O)O)n2)cc(C(C)(C)C)c1O [Example 9],73 ± 12%

# Same assay, conditions: Neutrophil, 100 μM, n = 9, read-out: LTB4 formation, Residual activity (%)
row,SMILES,activity at 100 µM
1,CC(C)(C)c1cc(-c2csc(CC(=O)O)n2)cc(C(C)(C)C)c1O [Example 9],20.5 ± 11%

# Test system: 5-HETE formation in human neutrophils
# Test: Influence on 5-HETE formation in human neutrophils
# Format: cell-based
# Conditions: Neutrophil, 0.1 μM, n = 6, read-out: 5-HETE formation, Residual activity (%)
# Procedure: as §1
row,SMILES,activity at 0.1 µM
1,CC(C)(C)c1cc(-c2csc(CC(=O)O)n2)cc(C(C)(C)C)c1O [Example 9],91.5 ± 10%

# Same assay, conditions: Neutrophil, 1 μM, n = 6, read-out: 5-HETE formation, Residual activity (%)
row,SMILES,activity at 1 µM
1,CC(C)(C)c1cc(-c2csc(CC(=O)O)n2)cc(C(C)(C)C)c1O [Example 9],80 ± 8%

# Same assay, conditions: Neutrophil, 10 μM, n = 6, read-out: 5-HETE formation, Residual activity (%)
row,SMILES,activity at 10 µM
1,CC(C)(C)c1cc(-c2csc(CC(=O)O)n2)cc(C(C)(C)C)c1O [Example 9],75 ± 13%

# Same assay, conditions: Neutrophil, 100 μM, n = 9, read-out: 5-HETE formation, Residual activity (%)
row,SMILES,activity at 100 µM
1,CC(C)(C)c1cc(-c2csc(CC(=O)O)n2)cc(C(C)(C)C)c1O [Example 9],21 ± 8%

# Test system: Adjuvant arthritis (Perper modification; paw volume) in rats
# Test: Adjuvant arthritis (Perper modification), paw volume on the 21st day
# Format: in vivo, rat (male, Wistar-Lewis strain)
# Conditions: Rattus norvegicus, po, 504 h; 50 mg/kg/day, 1st to 12th day; read-out: % inhibition on the 21st day, Left paw
# Procedure: (§2) The investigations were carried out by the method of Pearson (Arthrit. Rheum. 1959, 2, 44). Male rats of a Wistar-Lewis strain having a body weight between 130 and 200 g were used as experimental animals. The compounds to be tested were administered orally (p. o.) once daily from the 1st to the 5th experimental day in doses of 50 mg per kg of body weight. The animals of one control group received only the vehicle. Each preparation group and the control group comprised 8 animals. The percentage reduction of the paw volume increase compared to that of the untreated control group was used as the criterion of action. The ED50 values were determined graphically from the dose-response curve.
# (§3) 4-(3,5-Di-tert.-butyl-4-hydroxyphenyl)-2-methylthiazole i.e. the compound of the formula [drawing 26] according to US-A-4,535,165 mentioned at the beginning, was additionally included in this and the investigation below as a comparison preparation.
# a) Adjuvant arthritis (Perper modification)
# The animals were only treated from the 1st to the 12th experimental day in the experimental arrangement described in item 1. After a treatment-free interval of 9 days, determination of the paw volume of the left and right hind paw was carried out on the 21st day (compare Table 3).
row,SMILES,inhibition in vivo at 50 mg/kg
1,CC(C)(C)c1cc(-c2csc(C=NOCC(=O)O)n2)cc(C(C)(C)C)c1O [Example 5],20%
2,CC(C)(C)c1cc(-c2csc(C=CC(=O)O)n2)cc(C(C)(C)C)c1O [Example 11],44%
3,Cc1cc(-c2csc(CCC(=O)O)n2)cc(C(C)(C)C)c1O [Example 17],60%
4,CCOC(=O)CCc1nc(-c2cc(C(C)(C)C)c(O)c(C(C)(C)C)c2)c(C)s1 [Example 14],22%
5,CC(C)(C)c1cc(-c2csc(CCC(=O)Nc3nn[nH]n3)n2)cc(C(C)(C)C)c1O [Example 21],42%
6,"CCOC(=O)CCc1nc(-c2cc(C(C)(C)C)c(O)c(C(C)(C)C)c2)cs1 [Example 1, Ethyl 3-[4-(3,5-di-tert.-butyl-4-hydroxyphenyl)thiazol-2-yl]propionate]",45%
7,COC(=O)CCc1nc(-c2cc(C(C)(C)C)c(O)c(C(C)(C)C)c2)cs1 [Example 13],44%
8,CONC(=O)CCc1nc(-c2cc(C(C)(C)C)c(O)c(C(C)(C)C)c2)cs1 [Example 20],50%
9,"Cc1nc(-c2cc(C(C)(C)C)c(O)c(C(C)(C)C)c2)cs1 [Comparison preparation, 4-(3,5-Di-tert.-butyl-4-hydroxyphenyl)-2-methylthiazole, reference compound]",12%

# Same assay, conditions: Rattus norvegicus, po, 504 h; 50 mg/kg/day, 1st to 12th day; read-out: % inhibition on the 21st day, Right paw
row,SMILES,inhibition in vivo at 50 mg/kg
1,CC(C)(C)c1cc(-c2csc(C=NOCC(=O)O)n2)cc(C(C)(C)C)c1O [Example 5],42%
2,CC(C)(C)c1cc(-c2csc(C=CC(=O)O)n2)cc(C(C)(C)C)c1O [Example 11],51%
3,Cc1cc(-c2csc(CCC(=O)O)n2)cc(C(C)(C)C)c1O [Example 17],38%
4,CCOC(=O)CCc1nc(-c2cc(C(C)(C)C)c(O)c(C(C)(C)C)c2)c(C)s1 [Example 14],49%
5,CC(C)(C)c1cc(-c2csc(CCC(=O)Nc3nn[nH]n3)n2)cc(C(C)(C)C)c1O [Example 21],54%
6,"CCOC(=O)CCc1nc(-c2cc(C(C)(C)C)c(O)c(C(C)(C)C)c2)cs1 [Example 1, Ethyl 3-[4-(3,5-di-tert.-butyl-4-hydroxyphenyl)thiazol-2-yl]propionate]",49%
7,COC(=O)CCc1nc(-c2cc(C(C)(C)C)c(O)c(C(C)(C)C)c2)cs1 [Example 13],31%
8,CONC(=O)CCc1nc(-c2cc(C(C)(C)C)c(O)c(C(C)(C)C)c2)cs1 [Example 20],35%
9,"Cc1nc(-c2cc(C(C)(C)C)c(O)c(C(C)(C)C)c2)cs1 [Comparison preparation, 4-(3,5-Di-tert.-butyl-4-hydroxyphenyl)-2-methylthiazole, reference compound]",21%

# Same assay, conditions: comparison with preparation from US-A-4,535,165
row,SMILES,action in the Perper modification of adjuvant arthritis (in words)
1,"Cc1nc(-c2cc(C(C)(C)C)c(O)c(C(C)(C)C)c2)cs1 [Comparison preparation, 4-(3,5-Di-tert.-butyl-4-hydroxyphenyl)-2-methylthiazole, reference compound]",only a suggested action

# Test system: Arthus reaction (paw volume increase) in rats
# Test: Reverse passive Arthus reaction
# Format: in vivo, rat (male Sprague-Dawley)
# Conditions: 50 mg/kg orally
# Procedure: b) Reverse passive Arthus reaction
# Male Sprague-Dawley rats having a body weight between 100 and 120 g. which had been divided into groups of 8 animals in each case, were used as experimental animals. The animals received a subplantar injection in the left hind paw of 0.5 mg of immunoglobulin in 0.1 ml of a sodium chloride solution 1 hour after oral administration of the test substance. After 4 hours, the Arthus reaction was measured, the percentage change in the paw volume increase compared to that of the control group treated only with vehicle being used as a measuring parameter for the action.
row,SMILES,% inhibition (Arthus reaction)
1,CC(C)(C)c1cc(-c2csc(CCC(=O)Nc3nn[nH]n3)n2)cc(C(C)(C)C)c1O [Example 21],48%

# Same assay, conditions: 60 mg/kg orally
row,SMILES,% inhibition (Arthus reaction)
1,CC(C)(C)c1cc(-c2csc(C=NOCC(=O)O)n2)cc(C(C)(C)C)c1O [Example 5],38%

# Same assay, conditions: 100 mg/kg orally
row,SMILES,% inhibition (Arthus reaction)
1,CC(C)(C)c1cc(-c2csc(CSCC(=O)O)n2)cc(C(C)(C)C)c1O [Example 18],50%

# Test system: not listed separately
# Test: Free radical scavenger properties (reaction with DPPH)
# Conditions: reaction with DPPH at 20° C.; determined graphically
# Procedure: a) Free radical scavenger properties The testing in this test, which allows conclusions on the antioxidative potential of a substance, was carried out according to Smith et al., Biochem, Pharmacol. 1987. 36, 1456. In this test, the reaction of the compounds according to the invention with the stable free radical 1,1-diphenyl-2-picrylhydrazyl (DPPH) is monitored optically at 20° C. The rate constant K and reaction orders n in Table 5 were determined graphically in the customary manner.
row,SMILES,reaction order n
1,CC(C)(C)c1cc(-c2csc(C=CC(=O)O)n2)cc(C(C)(C)C)c1O [Example 11],1
2,CC(C)(C)c1cc(-c2csc(CCC(=O)Nc3nn[nH]n3)n2)cc(C(C)(C)C)c1O [Example 21],1
3,"CCOC(=O)C=Cc1nc(-c2cc(C(C)(C)C)c(O)c(C(C)(C)C)c2)cs1 [Example 2, Ethyl 3-[4-(3,5-di-tert.-butyl-4-hydroxyphenyl)thiazol-2-yl]acrylate]",1
4,"CCOC(=O)CCc1nc(-c2cc(C(C)(C)C)c(O)c(C(C)(C)C)c2)cs1 [Example 1, Ethyl 3-[4-(3,5-di-tert.-butyl-4-hydroxyphenyl)thiazol-2-yl]propionate]",< 1
5,COC(=O)CCc1nc(-c2cc(C(C)(C)C)c(O)c(C(C)(C)C)c2)cs1 [Example 13],1
6,CC(C)(C)c1cc(-c2csc(CC(=O)O)n2)cc(C(C)(C)C)c1O [Example 9],< 1
7,CC(C)(C)c1cc(-c2csc(CSCC(=O)O)n2)cc(C(C)(C)C)c1O [Example 18],1

# Test system: Adjuvant arthritis (paw volume increase) in rats
# Test: Adjuvant arthritis (method of Pearson), antiinflammatory action on the 5th day
# Format: in vivo, rat (male, Wistar-Lewis strain)
# Conditions: Rattus norvegicus, 120 h, adjuvant arthritis, oral, determined graphically from dose-response curve
# Procedure: The testing of the compounds of the formula I according to the invention for antiinflammatory action, influence on immunopathological processes, oxygen free radicaldeactivating properties and influence on arachidonic acid metabolism was carried out in the animal models and bioassays described in the following.
# 1. Adjuvant arthritis for influencing the antiinflammatory action (Table 2)
# as §2, §3
row,SMILES,ED50
1,CC(C)(C)c1cc(-c2csc(C=CC(=O)O)n2)cc(C(C)(C)C)c1O [Example 11],12.6 mg/kg
2,Cc1cc(-c2csc(CCC(=O)O)n2)cc(C(C)(C)C)c1O [Example 17],7.5 mg/kg
3,"CCOC(=O)CCc1nc(-c2cc(C(C)(C)C)c(O)c(C(C)(C)C)c2)cs1 [Example 1, Ethyl 3-[4-(3,5-di-tert.-butyl-4-hydroxyphenyl)thiazol-2-yl]propionate]",5.7 mg/kg

# Same assay, conditions: Rattus norvegicus, po, 120 h, 50 mg/kg p.o. once daily, 1st to 5th day, vs untreated control, read-out: Adjuvant arthritis (% inhibition at 50 mg/kg orally)
row,SMILES,inhibition in vivo at 50 mg/kg
1,CC(C)(C)c1cc(-c2csc(C=NOCC(=O)O)n2)cc(C(C)(C)C)c1O [Example 5],51%
2,CC(C)(C)c1cc(-c2csc(C=CC(=O)O)n2)cc(C(C)(C)C)c1O [Example 11],63%
3,CC(C)(OCc1nc(-c2cc(C(C)(C)C)c(O)c(C(C)(C)C)c2)cs1)C(=O)O [Example 6],70%
4,Cc1cc(-c2csc(CCC(=O)O)n2)cc(C(C)(C)C)c1O [Example 17],67%
5,CCOC(=O)CCc1nc(-c2cc(C(C)(C)C)c(O)c(C(C)(C)C)c2)c(C)s1 [Example 14],61%
6,CC(C)(C)c1cc(-c2csc(CCC(=O)Nc3nn[nH]n3)n2)cc(C(C)(C)C)c1O [Example 21],65%
7,"CCOC(=O)CCc1nc(-c2cc(C(C)(C)C)c(O)c(C(C)(C)C)c2)cs1 [Example 1, Ethyl 3-[4-(3,5-di-tert.-butyl-4-hydroxyphenyl)thiazol-2-yl]propionate]",73%
8,COC(=O)CCc1nc(-c2cc(C(C)(C)C)c(O)c(C(C)(C)C)c2)cs1 [Example 13],74%
9,CONC(=O)CCc1nc(-c2cc(C(C)(C)C)c(O)c(C(C)(C)C)c2)cs1 [Example 20],66%
10,"CC(C)(C)c1cc(-c2csc(C=C3CCNC3=O)n2)cc(C(C)(C)C)c1O [Example 4, 3-[4-(3,5-Di-tert.-butyl-4-hydroxyphenyl)thiazol-2-ylmethylidene]pyrrolidin-2-one]",54%
11,CC(C)(C)c1cc(-c2csc(CCCC(=O)O)n2)cc(C(C)(C)C)c1O [Example 10],71%
12,"Cc1nc(-c2cc(C(C)(C)C)c(O)c(C(C)(C)C)c2)cs1 [Comparison preparation, 4-(3,5-Di-tert.-butyl-4-hydroxyphenyl)-2-methylthiazole, reference compound]",67%

# Source: patent US5137897A, “2-substituted 4-(3-alkyl-5-tert.-butyl-4-hydroxyphenyl) thiazoles, processes for their preparation, pharmaceuticals containing them and their use” (Hoechst Aktiengesllschaft, priority 1989, dated 1992)
